Source: patent US10203320B2, “Label free method for assessing chemical cardiotoxicity” (Corning Incorporated, priority 2012, dated 2019)

How the values were obtained:
[1] = system: cultured human iPS-derived cardiomyocytes; assay: Label-free beat pattern (resonant light intensity imaging) of cultured cardiomyocytes on RWG biosensor; settings: Cardiomyocyte, 0.25 h, read-out: IC50, dose-dependent decrease/block of beating (beat rate and amplitude) of cultured cardiomyocytes
Protocol: Coating of EPIC® resonant waveguide grating (RWG) biosensors. EPIC® 384 well cell culture compatible plates were obtained from Corning, Inc. (Corning, N.Y.). The gelatin-coated EPIC® plates were obtained by incubating the plates with 10 microliter of 20 microgram/mL of freshly prepared gelatin solution in phosphate buffer saline and dried overnight under vacuum. Alternatively or additionally, for example, in experiments with IPS derived cardiomyocytes, the gelatin-coated EPIC® plates were obtained by incubating overnight, uncoated plates with 40 microliters of 0.1% gelatin (Type A) in a solution made with distilled water and autoclaved for 30 minutes to sterilize. The incubated plates were then washed with 40 microliters of sterile water three times immediately before seeding with cardiomyocyte cells.

[2] = system: cultured human iPS-derived cardiomyocytes; assay: Dynamic mass redistribution (DMR) assay of cultured cardiomyocytes on RWG biosensor; type: cell-based; settings: 160 nM
Protocol: Coating of EPIC® resonant waveguide grating (RWG) biosensors. […] VN is the abbreviation of a vitronectin peptide ([…]). First, a functionalized cell adhesive peptide-copolymer was prepared. […] The mobile phase was trifluoroethanol and potassium trifluoroacetate. […] Standards were prepared using the VN peptide in PBS. Absorbance was read on a BIOTEK® Synergy 4.
First Mode The resonant waveguide grating biosensor is illuminated at a normal incidence angle by a collimated LED (light emitting diode) beam, which passes through a tunable optical filter with a pass band width of 1 nm. The illuminated sensor area was imaged to a high speed CMOS (complementary metal-oxide-semiconductor) camera. Spectral images were acquired synchronously when the tunable filter sweeps through a wavelength range which covers the resonances of the biosensors. The image stack contains sensor spectra in all the pixels, where resonance wavelengths are extracted in a 2D image. Normally in each acquisition, the wavelength sweep is from 825 nm to 840 nm, or 820 nm to 835 nm for a duration of 3 seconds, and 150 frames of images were acquired during the wavelength scan. For typical long-term DMR assays, the update rate was from 15 seconds to minutes, with multiple scans averaged into a single data point. […]

Row | Compound | IC50 [1] | DMR signal of cultured cardiomyocytes in response to stimulation ([2]; compared to negative control (assay vehicle), 37° C., FIG. 3) | oscillation pattern of the DMR signal after stimulation ([2]; compared to the baseline and the DMR induced by the assay buffer)
1 | COc1cc(N)c(Cl)cc1C(=O)NC1CCN(CCCOc2ccc(F)cc2)CC1OC (stereo not shown) [cisapride, cisapride monohydrate] | ~160 nM |  | 
2 | CC(C)NC[C@H](O)c1ccc(O)c(O)c1 [isoprotenerol, (−)-Isoproterenol] |  | more sustained DMR signal | became smaller but with higher frequency
3 | COC(=O)C1=C(C)NC(C)=C(C(=O)OC(C)C)C1c1cccc2nonc12 (stereo not shown) [isradipine] | ~100 nM |  | 
